According to ChEMBL document CHEMBL1152728, “1-Amido-1-phenyl-3-piperidinylbutanes - CCR5 antagonists for the treatment of HIV. Part 1” (Bioorg Med Chem Lett, 2009):
Calls of active or inactive are those of the source. No cut-off for these calls is given here.

Tests used:
[1] = system: Human immunodeficiency virus 1; test: microbe, parasite or virus in culture; conditions: Human immunodeficiency virus 1, Bal, PM1
physchem [2] = conditions: buffer, pH 7.4
physchem [3] = test: physchem
hERG (KCNH2) = hERG (KCNH2) (Homo sapiens, UniProt Q12809); test: in vitro; conditions: HEK293 cells that express human ERG, probe [3H]dofetilide
Liver microsomes = test: Metabolic stability in human liver microsomes assessed as clearance measured per mg of protein; format: ADME, Microsome
[4] = system: Human immunodeficiency virus 1; conditions: Bal, PM1
[5] = molecular target: Voltage-gated inwardly rectifying potassium channel KCNH2 (Homo sapiens, UniProt Q12809)
Voltage-gated inwardly rectifying potassium channel KCNH2, sequence (Q12809 whole entry): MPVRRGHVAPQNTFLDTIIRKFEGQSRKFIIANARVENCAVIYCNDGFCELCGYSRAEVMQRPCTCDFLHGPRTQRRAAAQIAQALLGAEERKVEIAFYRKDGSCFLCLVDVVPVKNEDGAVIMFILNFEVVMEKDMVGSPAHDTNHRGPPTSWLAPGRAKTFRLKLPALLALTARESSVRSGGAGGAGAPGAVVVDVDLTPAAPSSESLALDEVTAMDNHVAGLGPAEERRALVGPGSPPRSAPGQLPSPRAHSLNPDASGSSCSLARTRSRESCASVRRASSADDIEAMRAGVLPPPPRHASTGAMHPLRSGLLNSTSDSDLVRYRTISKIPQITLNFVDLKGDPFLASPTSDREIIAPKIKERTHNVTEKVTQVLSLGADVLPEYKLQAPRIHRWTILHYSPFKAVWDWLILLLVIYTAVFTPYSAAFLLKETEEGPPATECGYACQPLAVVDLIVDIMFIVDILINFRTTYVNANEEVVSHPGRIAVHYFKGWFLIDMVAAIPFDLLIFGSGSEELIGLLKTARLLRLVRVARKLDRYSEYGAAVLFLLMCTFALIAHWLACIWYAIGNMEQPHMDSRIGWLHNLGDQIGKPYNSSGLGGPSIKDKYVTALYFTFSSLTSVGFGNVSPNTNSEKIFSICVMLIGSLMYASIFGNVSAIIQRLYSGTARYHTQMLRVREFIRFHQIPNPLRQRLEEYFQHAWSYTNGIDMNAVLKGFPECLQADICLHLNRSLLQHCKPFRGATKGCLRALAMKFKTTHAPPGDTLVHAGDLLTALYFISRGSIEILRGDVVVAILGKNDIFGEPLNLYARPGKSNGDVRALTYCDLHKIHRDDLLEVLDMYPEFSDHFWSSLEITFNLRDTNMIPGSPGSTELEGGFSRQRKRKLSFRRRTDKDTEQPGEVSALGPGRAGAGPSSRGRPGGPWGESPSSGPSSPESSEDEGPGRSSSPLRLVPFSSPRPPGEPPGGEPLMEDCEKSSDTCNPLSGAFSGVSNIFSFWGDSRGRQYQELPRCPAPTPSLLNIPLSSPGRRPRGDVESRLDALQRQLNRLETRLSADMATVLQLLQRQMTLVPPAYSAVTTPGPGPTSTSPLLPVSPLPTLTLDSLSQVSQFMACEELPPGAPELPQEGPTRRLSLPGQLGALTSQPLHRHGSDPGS

hERG (KCNH2), sequence (Q12809 whole entry): as above

IC90 [1] | logD (physchem [2]) | Stability (Liver microsomes) | Structure (SMILES) | further results
1630 nM | – | – | CCN(C(=O)c1ccc(F)cc1)C1CCN(C(C)C[C@H](NC(=O)C2CCC2)c2ccccc2)CC1 (some centres undefined) | –
– | 1.7 | < 8 µL/min | Cc1nnc(C(C)C)n1C1CCN(CC[C@H](NC(=O)C2CCC(F)(F)CC2)c2ccccc2)CC1 | pKa (physchem [3]): 7.2; inhibition at 0.3 µM (hERG (KCNH2)): 0%; Activity [4]: inactive
– | 3.2 | 204 µL/min | CC(C)c1noc(C2CCN(C(C)C[C@H](NC(=O)C3CCC3)c3ccccc3)CC2)n1 (some centres undefined) | –
– | 1.1 | < 7 µL/min | CC(C[C@H](NC(=O)C1CCC1)c1ccccc1)N1CCC(c2nnc(CN(C)C)o2)CC1 (some centres undefined) | –
– | 1.9 | < 7 µL/min | Cc1nnc(C(C)C)n1C1CCN(C(C)C[C@H](NC(=O)C2CCC2)c2ccccc2)CC1 (some centres undefined) | –
– | 2.4 | 38 µL/min | CC(C[C@H](NC(=O)C1CCC1)c1ccccc1)N1CCC(c2[nH]ncc2-c2ccncc2)CC1 (some centres undefined) | IC50 [5]: 117 nM
– | 3.5 | 35 µL/min | CC(C[C@H](NC(=O)C1CCC1)c1ccccc1)N1CCC(n2cc(-c3ccccc3)[nH]c2=O)CC1 (some centres undefined) | IC50 [5]: 4.7 nM
– | 1.2 | < 7 µL/min | Cc1nnc(C)n1C1CCN(C(C)C[C@H](NC(=O)C2CCC2)c2ccccc2)CC1 (some centres undefined) | –
– | 1.3 | < 7 µL/min | Cc1nnc(C2CCN(C(C)C[C@H](NC(=O)C3CCC3)c3ccccc3)CC2)o1 (some centres undefined) | –
0.236 nM | – | – | CCN(C(=O)NCc1ccc(Cl)c(Cl)c1)C1CCN(C(C)C[C@H](NC(=O)C2CCC2)c2ccccc2)CC1 (some centres undefined) | –
– | 2.9 | 183 µL/min | CCN(C(=O)Cc1ccc(OC)cc1)[C@H]1C[C@H]2CC[C@@H](C1)N2CC[C@H](NC(=O)C1CCC1)c1ccccc1 | pKa (physchem [3]): 8.7
– | 2.1 | 56 µL/min | Cc1noc(C2CCN(C(C)C[C@H](NC(=O)C3CCC3)c3ccccc3)CC2)n1 (some centres undefined) | –
0.7 nM | 2 | 22 µL/min | Cc1nnc(C(C)C)n1[C@H]1C[C@H]2CC[C@@H](C1)N2CC[C@H](NC(=O)C1CCC(F)(F)CC1)c1ccccc1 [MARAVIROC] | pKa (physchem [3]): 7.7
0.322 nM | – | – | CCN(C(=O)OCc1ccccc1)C1CCN(C(C)C[C@H](NC(=O)C2CCC2)c2ccccc2)CC1 (some centres undefined) | –

Structure (SMILES) | IC90 [1] | logD (physchem [2]) | Stability (Liver microsomes) | further results
CCN(C(=O)Oc1ccc(F)cc1)C1CCN(C(C)C[C@H](NC(=O)C2CCC2)c2ccccc2)CC1 (some centres undefined) | 61.4 nM | – | – | –
